Laboratory results from US20230407298A1, “METHODS FOR INHIBITING CHMP7 EXPRESSION IN NEURONAL CELLS FOR THE TREATMENT OF NEURODEGENERATIVE DISORDERS” (THE JOHNS HOPKINS UNIVERSITY, priority 2020, published 2023).
Where two headings read alike, the source gives them in different places.

What was measured:
XPO1 [1] = target: T1, XPO1 (Homo sapiens, UniProt O14980); experiment: Nuclear/cytoplasmic fractionation and qRT-PCR of C9orf72 iPSNs following Leptomycin B treatment; format: cell-based
Target sequence in this assay (O14980 whole entry): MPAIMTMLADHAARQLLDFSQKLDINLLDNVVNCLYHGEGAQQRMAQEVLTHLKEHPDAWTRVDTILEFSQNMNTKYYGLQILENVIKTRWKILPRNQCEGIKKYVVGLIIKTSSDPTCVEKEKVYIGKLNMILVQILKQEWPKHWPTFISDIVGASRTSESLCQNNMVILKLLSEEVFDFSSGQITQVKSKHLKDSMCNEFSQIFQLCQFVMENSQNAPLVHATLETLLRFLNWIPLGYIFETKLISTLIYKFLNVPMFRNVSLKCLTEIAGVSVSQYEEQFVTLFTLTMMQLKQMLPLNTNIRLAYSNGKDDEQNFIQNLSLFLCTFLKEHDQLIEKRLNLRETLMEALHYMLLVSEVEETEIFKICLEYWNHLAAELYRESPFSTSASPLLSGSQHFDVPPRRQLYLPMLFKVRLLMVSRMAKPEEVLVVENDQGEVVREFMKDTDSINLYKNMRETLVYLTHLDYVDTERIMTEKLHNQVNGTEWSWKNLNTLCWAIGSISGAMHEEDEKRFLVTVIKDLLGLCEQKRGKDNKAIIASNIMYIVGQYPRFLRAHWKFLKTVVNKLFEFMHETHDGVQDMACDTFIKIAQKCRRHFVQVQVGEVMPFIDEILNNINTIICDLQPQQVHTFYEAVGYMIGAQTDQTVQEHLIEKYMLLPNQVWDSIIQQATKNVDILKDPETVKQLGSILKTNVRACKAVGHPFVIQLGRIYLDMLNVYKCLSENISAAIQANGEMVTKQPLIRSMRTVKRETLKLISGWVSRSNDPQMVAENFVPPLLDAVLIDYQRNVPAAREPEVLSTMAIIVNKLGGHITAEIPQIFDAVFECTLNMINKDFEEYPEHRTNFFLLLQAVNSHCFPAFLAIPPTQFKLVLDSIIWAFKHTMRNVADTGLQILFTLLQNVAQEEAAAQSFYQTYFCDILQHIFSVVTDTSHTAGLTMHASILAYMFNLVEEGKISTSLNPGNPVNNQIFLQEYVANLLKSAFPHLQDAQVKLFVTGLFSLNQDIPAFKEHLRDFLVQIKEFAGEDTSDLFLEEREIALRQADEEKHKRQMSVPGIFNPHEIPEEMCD
Description: Ethanol was used as vehicle control. iPSNs were rinsed in 1×PBS and nuclear/cytoplasmic fractionation was performed with the NE-PER Nuclear and Cytoplasmic Extraction Kit (Thermo Fisher Scientific) according to manufacturer protocol. Following the addition of C2 buffer, 25 μL of sample was added to 25 μL 2× Laemmli buffer (BioRad) and set aside as protein input. An additional 25 μL was set aside on ice as RNA input. From each nuclear and cytoplasmic fraction obtained, 25 μL sample was added to 25 μL 2× Laemmli buffer for protein analysis. An additional 25 μL was added to 500 μL RLT buffer (QIAGEN) for RNA analysis. The remainder of each fraction was stored at −80° C. At the completion of the fractionation, 500 μL RLT buffer was added to the RNA input sample. RNA isolation, cDNA synthesis, and qRT-PCR were performed as described below. […] RNA from immunoprecipitated complexes or nuclear and cytoplasmic cellular fractions was isolated with a RNeasy kit (QIAGEN) according to manufacturer protocol. RNA concentrations were determined with a NanoDrop 1000 spectrophotometer (Thermo Fisher Scientific). […]

XPO1 [2] = target: T1, XPO1; conditions: non-neuronal cell lines (ref 24); cited from earlier work
Target sequence in this assay (O14980 whole entry, species assumed): as the sequence (O14980 whole entry) above

XPO1 [3] = target: T1, XPO1; experiment: Nuclear/cytoplasmic fractionation and western blot of iPSNs following Leptomycin B treatment; format: cell-based; conditions: iPSNs (FIGS. 12A-12C)
Target sequence in this assay (O14980 whole entry): as above
Description: Leptomycin B and ASO Treatment of iPSC Derived Neurons Leptomycin B: On day 18 of differentiation, 10 nM Leptomycin B (LMB, Cayman Chemicals) was added to the culture media and iPSNs were returned to the incubator for ˜18 hours before downstream analyses were conducted. Ethanol was used as vehicle control. iPSNs were rinsed in 1×PBS and nuclear/cytoplasmic fractionation was performed with the NE-PER Nuclear and Cytoplasmic Extraction Kit (Thermo Fisher Scientific) according to manufacturer protocol. Following the addition of C2 buffer, 25 μL of sample was added to 25 μL 2× Laemmli buffer (BioRad) and set aside as protein input. An additional 25 μL was set aside on ice as RNA input. From each nuclear and cytoplasmic fraction obtained, 25 μL sample was added to 25 μL 2× Laemmli buffer for protein analysis. An additional 25 μL was added to 500 μL RLT buffer (QIAGEN) for RNA analysis. The remainder of each fraction was stored at −80° C. At the completion of the fractionation, 500 μL RLT buffer was added to the RNA input sample. RNA isolation, cDNA synthesis, and qRT-PCR were performed as described below. Western blot analysis was conducted as described below. Equal volume of each sample (10 μL) was loaded in acrylamide gels. […] The supernatant was transferred to a new Eppendorf tube and protein concentrations were determined using the BCA protein estimation assay kit (Thermo Fisher Scientific). […]

XPO1 [4] = target: T1, XPO1; experiment: SIM of nuclei isolated from wildtype iPSNs following Leptomycin B treatment; format: cell-based; conditions: 10 nM, ~18 hours
Target sequence in this assay (O14980 whole entry): as above
Description: Leptomycin B and ASO Treatment of iPSC Derived Neurons Leptomycin B: On day 18 of differentiation, 10 nM Leptomycin B (LMB, Cayman Chemicals) was added to the culture media and iPSNs were returned to the incubator for ˜18 hours before downstream analyses were conducted. Ethanol was used as vehicle control. Nuclei were isolated from iPSNs and postmortem human brain and spinal cord tissue using the Nuclei Pure Prep Nuclei Isolation Kit (Sigma Aldrich) following manufacturer protocol as previously described (13). Briefly, iPSN lysates were prepared by rinsing iPSNs with 1×PBS, adding mL supplied lysis buffer supplemented with DTT and Triton X-100 directly to each well, and harvesting iPSNs with a cell scraper. […] All lysates were transferred to a 50 mL conical tube and vortexed. Sucrose gradients were assembled following manufacturer protocol. A 1.85 M sucrose gradient was used to enrich for neuronal nuclei. Samples were centrifuged at 15,600 rpm and 4° C. using a Swi32T swinging bucket rotor and Beckman ultracentrifuge (Beckman Coulter) for 45 minutes. The supernatant was discarded, and the remaining nuclei pellet was resuspended in 1 mL of supplied nuclei storage buffer to wash the nuclei of any remaining sucrose. Resuspended nuclei were centrifuged at 2500 rpm and 4° C. for 5 minutes. The supernatant was once again discarded, and the resulting nuclei pellet was vortexed in 1 mL of supplied nuclei storage buffer to resuspend for downstream imaging analysis. […] Nuclei staining and super resolution imaging was performed as previously described (6). Following nuclei isolation, 10-50 μL of final nuclei/storage buffer suspension was centrifuged onto collagen coated (1 mg/mL; Advanced Biomatrix) slides with a CytoSpin 4 centrifuge (Thermo Fisher Scientific). Nuclei were immediately fixed with 4% PFA for 5 minutes, washed with 1×PBS 3×10 minutes and permeabilized with 1×PBST containing 0.1% Triton X-100 for 15 minutes. Nuclei were then blocked with 10% normal goat serum diluted in 1×PBS for 1 hour at room temperature and incubated in primary antibody diluted in block (10% normal goat serum in 1×PBS) overnight at 4° C. […] After 16-18 hours, nuclei were washed with 1×PBS 3×10 minutes, incubated in secondary antibody diluted in block (10% normal goat serum in 1×PBS) for 1 hour at room temperature (See Table B for antibody information). Nuclei were washed with 1×PBS 3×10 minutes and cover slipped using Prolong Gold Antifade Reagent (Invitrogen) and 18 mm×18 mm 1.5 high tolerance coverslips (MatTek). NeuN or GFP positive nuclei (see Description of the Figures) were identified via microscope eye pieces. A single z section ˜110 nm thick was acquired by widefield imaging to confirm NeuN or GFP positivity. The immunostained Nup or ESCRT-III protein was subsequently imaged by super resolution structured illumination microscopy (SIM) using a Zeiss ELYRA 51. For each image, 5 grid rotations and optimal z sectioning parameters were employed. Following image acquisition, SIM images were reconstructed using default SIM processing parameters with Zeiss Zen Black 2.3 SP1 software. Automated nucleoporin spot and volume analysis was conducted as previously described (6, 26) using Imaris version 9.2.0 (Bitplane) and the 3D suite plugin in FIJI version 1.52p. Nucleoporin spots were counted using automated spot detection. […] The total number of nucleoporin spots was determined using a 3D-rendering of segmented SIM images comprising the entire depth of each nucleus.

iPSNs = experiment: Glutamate toxicity, propidium iodide (PI) incorporation; format: cell-based, human
Description: On day 12 of differentiation, iPSNs were plated in 24 well optical bottom plates (Cellvis) at a density of 250,000 neurons per well. Neurons were rinsed with 1×PBS and fed with fresh stage 3 media daily remove dead cells and debris until day 25 of differentiation. On day 25 of differentiation, ASO treatment was initiated as described above. Every 3 days, iPSNs were rinsed 3× with 1×PBS and media and ASO were replaced. On day 40 of differentiation, iPSNs were washed with 1×PBS to remove any remaining debris and dead cells. Media was replaced with ACSF (Tocris) containing 0 or 10 μM glutamate (Sigma Aldrich). iPSNs were incubated at 37° C. with 5% CO2 for 4 hours. After 3.5 hours, one drop of NucBlue Live ReadyProbes (Thermo Fisher Scientific) and […] (Thermo Fisher Scientific) and returned to the incubator for 30 mins. iPSNs were imaged in an environmentally controlled chamber with a Zeiss LSM 800 confocal microscope. […] PI and DAPI spots were counted using FIJI.
On day 12 of differentiation, iPSNs were plated in 24 well optical bottom plates (Cellvis) at a density of 250,000 neurons per well. […] After 3.5 hours, one drop of NucBlue Live ReadyProbes (Thermo Fisher Scientific) and 1 μM propidium iodide (Thermo Fisher Scientific) and returned to the incubator for 30 minutes. iPSNs were imaged in an environmentally controlled chamber with a Zeiss LSM 800 confocal microscope. […]

[5] = tested on: POM121, Nup133, Nup50, FG Nups; experiment: SIM imaging of nucleoporins in nuclei isolated from CHMP7 ASO treated iPSNs; format: cell-based, human; conditions: 5 μM, 2-week exposure
Description: C9orf72 repeat ASO: Sense strand targeting G4C2 ASO (619251) (13) was generously provided by Ionis Pharmaceuticals. On day 20 of differentiation, 5 μM sense targeting ASO was added to the culture media. Media was exchanged and ASO replaced on day 22 of differentiation and downstream analyses were performed on day 25 of differentiation. CHMP7 ASO: Non-targeting scrambled control (676630): […] (SEQ ID NO: 2), CHMP7 ASO 1 (1508916): […] (SEQ ID NO: 3), CHMP7 ASO 2 (1508917): […] (SEQ ID NO: 4), and CHMP7 ASO 3 (1508918): […] (SEQ ID NO:14) were generously provided by Ionis Pharmaceuticals. On day 25 of differentiation, ASOs were added to the culture media at concentrations of 1, 5, or 10 μM as indicated in Description of the Figures. Media was exchanged and ASO replaced every 3 days until day 40 of differentiation.
Nuclei were isolated from iPSNs and postmortem human brain and spinal cord tissue using the Nuclei Pure Prep Nuclei Isolation Kit (Sigma Aldrich) following manufacturer protocol as previously described (13). Briefly, iPSN lysates were prepared by rinsing iPSNs with 1×PBS, adding […] supplied lysis buffer supplemented with DTT and Triton X-100 directly to each well, and harvesting iPSNs with a cell scraper. Postmortem brain and spinal cord lysates were prepared by homogenizing 150 mg fresh frozen tissue directly in supplied lysis buffer with a dounce homogenizer. All lysates were transferred to a 50 mL conical tube and vortexed. Sucrose gradients were assembled following manufacturer protocol. A 1.85 M sucrose gradient was used to enrich for neuronal nuclei. Samples were centrifuged at 15,600 rpm and 4° C. using a Swi32T swinging bucket rotor and Beckman ultracentrifuge (Beckman Coulter) for 45 minutes. The supernatant was discarded, and the remaining nuclei pellet was resuspended in 1 mL of supplied nuclei storage buffer to wash the nuclei of any remaining sucrose. Resuspended nuclei were centrifuged at 2500 rpm and 4° C. for 5 minutes. The supernatant was once again discarded, and the resulting nuclei pellet was vortexed in 1 mL of supplied nuclei storage buffer to resuspend for downstream imaging analysis. For western blots, washed nuclei were lysed in RIPA buffer as described below.
Nuclei staining and super resolution imaging was performed as previously described (6). Following nuclei isolation, 10-50 μL of final nuclei/storage buffer suspension was centrifuged onto collagen coated (1 mg/mL; Advanced Biomatrix) slides with a CytoSpin 4 centrifuge (Thermo Fisher Scientific). Nuclei were immediately fixed with 4% PFA for 5 minutes, washed with 1×PBS 3×10 minutes and permeabilized with 1×PBST containing 0.1% Triton X-100 for 15 minutes. Nuclei were then blocked with 10% normal goat serum diluted in 1×PBS for 1 hour at room temperature and incubated in primary antibody diluted in block (10% normal goat serum in 1×PBS) overnight at 4° C. (See Table B for antibody information). After 16-18 hours, nuclei were washed with 1×PBS 3×10 minutes, incubated in secondary antibody diluted in block (10% normal goat serum in 1×PBS) for 1 hour at room temperature (See Table B for antibody information). Nuclei were washed with 1×PBS 3×10 minutes and cover slipped using Prolong Gold Antifade Reagent (Invitrogen) and 18 mm×18 mm 1.5 high tolerance coverslips (MatTek). NeuN or GFP positive nuclei (see Description of the Figures) were identified via microscope eye pieces. A single z section ˜110 nm thick was acquired by widefield imaging to confirm NeuN or GFP positivity. The immunostained Nup or ESCRT-III protein was subsequently imaged by super resolution structured illumination microscopy (SIM) using a Zeiss ELYRA 51. For each image, 5 grid rotations and optimal z sectioning parameters were employed. Following image acquisition, SIM images were reconstructed using default SIM processing parameters with Zeiss Zen Black 2.3 SP1 software. […]

stathmin-2 mRNA = experiment: qRT-PCR for full length and truncated stathmin-2 mRNA; format: cell-based, human; conditions: C9orf72 and sALS iPSNs; day 46; 3 week exposure; GAPDH normalization
Description: (§1) Non-targeting scrambled control (676630): […] (SEQ ID NO:2), CHMP7 ASO 1 (1508916): […] (SEQ ID NO:3), CHMP7 ASO 2 (1508917): […] (SEQ ID NO:4), and CHMP7 ASO 3 (1508918): […] (SEQ ID NO:14) were generously provided by Ionis Pharmaceuticals. On day 25 of differentiation, ASOs were added to the culture media at concentrations of […] as indicated in Description of the Figures. Media was exchanged and ASO replaced every 3 days until iPSNs were subjected to downstream analyses on day 40 of differentiation for western blot, SIM, and glutamate excitotoxicity and day 46 of differentiation for stathmin-2 qRT-PCR, Ran GTPase localization, and TDP-43 localization.
RNA from iPSNs was isolated with a RNeasy kit (QIAGEN) according to manufacturer protocol. RNA concentrations were determined with a NanoDrop 1000 spectrophotometer (Thermo Fisher Scientific). For CHMP7 ASO experiments, RNA was isolated on day 46 of differentiation following 3 weeks exposure to 5 μM CHMP7 ASO2 or scrambled control ASO. For CHMP7 overexpression experiments, RNA was isolated on day 32 of differentiation (2 weeks after plasmid nucleofection). […]

TDP-43 = experiment: Immunostaining and confocal imaging for TDP-43 in iPSNs; format: cell-based, human; conditions: sALS iPSNs; day 46; 3-week treatment
Description: as §1
On day 12 of differentiation, iPSNs were plated in 24 well optical bottom plates (Cellvis). […] Nuclear intensity and N/C ratios were calculated with FIJI as previously described (80). […]

[6] = C9orf72 and sALS iPSNs, day 40, compared to scrambled control ASO
[7] = C9orf72 iPSNs, compared to scrambled control ASO

For CCC(=C/[C@H](C)C/C=C/C(C)=C/[C@@H](C)C(=O)[C@@H](C)[C@H](O)[C@@H](C)C/C(C)=C/C(=O)O)/C=C/[C@@H]1OC(=O)C=C[C@@H]1C [LMB, Leptomycin B], the “presence of G4C2 repeat RNA in the nuclear fraction” value (XPO1 [1]; C9orf72 iPSNs (FIG. 12D)) is given as “strongly increases”, the “presence of G2C4 repeat RNA in the nuclear fraction” value (XPO1 [1]; C9orf72 iPSNs (FIG. 12E)) is given as “strongly increases” and the “nuclear levels of DDX3X” value (XPO1 [2]) is given as “increases”. For the same compound, the “nuclear levels of RanBP1” value (XPO1 [2]) was “increases”, the “nuclear levels of DDX3X” value (XPO1 [3]) was “increases” and the “nuclear levels of RanBP1” value (XPO1 [3]) was “increases”. For the same compound, the “CHMP7 in the nucleus” value (XPO1 [4]) was “significant increase”, the “Nup50 immunoreactivity in nuclei” value (XPO1 [4]) was “reduction” and the “Nup133 immunoreactivity in nuclei” value (XPO1 [4]) was “reduction”. The “POM121 immunoreactivity in nuclei” value (XPO1 [4]) was “reduction” and the “VPS4 immunoreactivity in nuclei” value (XPO1 [4]) was “increase”.

In the case of “TGTTACCCTCAGATACCGCC (listed as DNA, chemistry not given here) [CHMP7 ASO 2, CHMP7 targeting ASO provided by Ionis Pharmaceuticals; targets human CHMP7 pre-mRNA, RNase H based degradation]”, the “sensitivity to glutamate induced excitotoxicity as measured by propidium iodide (PI) incorporation” value (iPSNs; C9orf72 and sALS iPSNs, two week treatment (FIG. 20I)) is reported as “significantly decreased”, the “sensitivity to glutamate induced excitotoxicity as measured by propidium iodide (PI) incorporation” value (iPSNs; C9orf72 iPSNs, 2-week exposure to 5 μM ASO, 10 μM glutamate 4 hours (FIG. 4H)) is reported as “mitigates” and the “Nup50 expression in iPSN nuclei and NPCs” value [5, 6] is reported as “significantly restored”. The “Nup133 expression in iPSN nuclei and NPCs” value [5, 6] was “significantly restored”, the “POM121 expression in iPSN nuclei and NPCs” value [5, 6] was “significantly restored” and the “Nup50 expression in iPSN nuclei and NPCs” value [5, 7] was “significantly restored”. The “Nup133 expression in iPSN nuclei and NPCs” value [5, 7] was “significantly restored”, the “POM121 expression in iPSN nuclei and NPCs” value [5, 7] was “significantly restored” and the “full length stathmin-2 mRNA levels” value (stathmin-2 mRNA) was “restored to levels observed in control iPSNs”. The “truncated stathmin-2 mRNA levels” value (stathmin-2 mRNA) was “restored to levels observed in control iPSNs” and the “nuclear TDP-43 localization” value (TDP-43) was “restored”.
